Experiment [1] deals with T1, IdeR (Mycobacterium tuberculosis, UniProt P9WMH1). Kind of experiment: biochemical. Conditions: EMSA.
The target of experiment [2] is T1, IdeR. Kind of experiment: EMSA competition experiments with increasing labeled DNA. The experiment is classed as biochemical. Conditions: DNA 0.8 pmoles to 12.8 pmoles.
Experiment [3] has as its system HEK (Human Embryonic Kidney cell line). Kind of experiment: Cytotoxicity by REMA in HEK. Particulars: 1-200 µg/ml; for IC50: Homo sapiens, read-out: Inhibition in HEK (IC50 in µg/ml). The experiment is classed as cell-based. As for the experimental part: (§1) The cytotoxicity of the compounds was determined by employing REMA using various mammalian cell lines such as THP-1 (human monocytic macrophage cell line), HEK (Human Embryonic Kidney cell line), MDCK (Madine darby canine kidney cell line) and HepG2 (Human hepatocellular carcinoma cell line). 1 × 10^4 cells/well were employed in a sterilized 96-well plate containing serial dilutions of compounds ranging from 1 µg/ml to 200 µg/ml concentration, in their respective media (RPMI for THP-1, DMEM for HEK and HepG2 and MEM for MDCK) with 10% fetal bovine serum and Antibiotic-Antimycotic mix (Invitrogen Corporation, Carlsbad, California, USA). IC50 is defined as the concentration of the compound that causes 50% reduction in the fluorescence intensity indicating 50% viable cells. IC50 values were determined from the results of at least two independent tests and Mean ± S.E.M was calculated from the inhibition curve using GraphPad Prism 5.

The test system of experiment [4] is MDCK (Madine darby canine kidney cell line). Kind of experiment: Cytotoxicity by REMA in MDCK. Particulars: 1-200 µg/ml; for IC50: Canis lupus familiaris, MDCK, read-out: Inhibition in MDCK (IC50 in µg/ml). The experiment is classed as cell-based. As for the experimental part: as §1
Experiment [5] relates to M. tuberculosis. Kind of experiment: Resazurin microtiter assay (REMA) whole cell MIC90 in broth culture. The experiment is classed as cell-based, Mycobacterium tuberculosis. Conditions: MB7H9 medium, Mean ± S.E., three experiments; for MIC90: Mycobacterium tuberculosis, read-out: MIC90 of compounds against M. tuberculosis.
In experiment [6] the test system is THP-1 (human monocytic macrophage cell line). Kind of experiment: Cytotoxicity by REMA in THP-1. The experiment is classed as cell-based. Particulars: for Inhibition in THP1 (IC50 in µg/ml): 1-200 µg/ml; for IC50: Homo sapiens, THP-1, 1-200 µg/ml, read-out: Inhibition in THP1 (IC50 in µg/ml). As for the experimental part:
as §1

For experiment [7], the system named is HepG2 (Human hepatocellular carcinoma cell line). Put plainly: Cytotoxicity by REMA in HepG2. The experiment is classed as cell-based. Conditions: for Inhibition in HepG2 (IC50 in µg/ml): 1-200 µg/ml; for IC50: Homo sapiens, HepG2, 1-200 µg/ml, read-out: Inhibition in HepG2 (IC50 in µg/ml). As for the experimental part:
as §1

[8] abbreviates: 0.35 µg IdeR, 0.8 picomoles labeled DNA, 200 µM NiSO4, inhibitor 0.4-100 µg/ml.
Where [9] appears, read: same values given in µM, read-out: IC50.
[10] abbreviates: 0.35 µg IdeR, 0.8 picomoles labeled DNA, 200 µM NiSO4, inhibitor 0.4-100 µg/ml, read-out: IC50 (µg/ml) (converted).

≈ marks a conversion by molar mass, not a printed value. Where “and” joins values, the source holds several entries; their conditions need not be identical. Equal entries are not always repeated. Structures can show the parent of a compound that is named as a salt. Where two headings read alike, the source gives them in different places. Bounds are passed on as bounds.

T1 sequence (P9WMH1 whole entry, looked up): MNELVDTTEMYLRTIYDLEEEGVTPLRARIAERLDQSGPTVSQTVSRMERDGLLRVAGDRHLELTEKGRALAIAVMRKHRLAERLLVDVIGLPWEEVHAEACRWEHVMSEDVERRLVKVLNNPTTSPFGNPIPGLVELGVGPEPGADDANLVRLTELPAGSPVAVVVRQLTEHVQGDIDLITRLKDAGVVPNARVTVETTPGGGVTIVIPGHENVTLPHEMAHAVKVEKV

As for “4-oxo-3-({4-[-(4-sulfophenyl)diazenyl]phenyl}hydrazono)-3,4-dihydro-1-naphtalenesulfonic acid [IS-7]”, the “IC50” value in experiment [1] (setting [8]) was determined as 32.13 ± 1.56 µg/mL; in experiment [1] (setting [9]) it was 57.5 µM.
Take “5[phenylimino)methyl]benzene-1,2,3 triol [IS-51]”: the “IC50” value is 16.5 µg/mL and 16.52 ± 1.72 µg/mL in experiment [1] (setting [8]); 72 µM in experiment [1] (setting [9]).
For `O=C1OC(C=Cc2ccccc2)=NC1=Cc1cccc([N+](=O)[O-])c1` [Compound I-18, 4-(3-nitrobenzylidene)-2-[2-phenylethenyl]-1,3-oxazol5(4H)-one], the IC50 in experiment [1] (setting [10]) and in experiment [1] (setting [9]) was 43.7 µM throughout.
On to `NC(CC(=O)O)C(=O)OCc1cccc(/N=N/c2ccccc2)c1` (centres unmarked) [Compound I-21], for which the values for the IC50 in experiment [1] (setting [10]) and in experiment [1] (setting [9]) were 16.7 µM and 16.8 µM, respectively. Further, in experiment [2], the “mode of inhibition in competition with DNA” value is “competing with DNA”.
As to `Cc1cc(=O)oc2c(CNC(C)C(=O)O)cc(O)cc12` (centres unmarked) [Compound I-38], the “IC50” value in experiment [1] (setting [8]) amounted to 100 ± 3.176 µg/mL; in experiment [1] (setting [9]), 361 µM.
For `O=S(=O)(Nc1ccc(Cl)cc1NS(=O)(=O)c1ccccc1)c1ccccc1` [Compound I-85, N,N`-(4-chlorobenzene-1,2-diyl)dibenzenesulfonamide], the results for the IC50 in experiment [1] (setting [10]) and in experiment [1] (setting [9]) were 67.2 µM and 67.1 µM, respectively.
The corresponding values for `O=C(NN=c1ccc([N+](=O)[O-])c[nH]1)Nc1ccc(-c2ccccc2)cc1` [Compound I-89, N-(biphenyl-4-yl)-2-(5-nitropyridin-2(1H)-ylidene)hydrazinecarboxamide] are 83.3 µM and 83.4 µM.
With `Cc1ccccc1N=Nc1ccc2c(S(=O)(=O)[O-])cccc2c1O.[Na+]` [Compound I-90, 1-Naphthalenesulfonic acid,5-hydroxy-6-[(2-methylphenyl)azo]-monosodium salt], the entries for the “IC50” value in experiment [1] (setting [8]) and in experiment [1] (setting [9]) were 45.27 ± 1.3 µg/mL and 124 µM, respectively.
Take `O=C1N[C@H]2CCCC[C@@H]2C(=O)N1OS(=O)(=O)c1ccccc1` [Compound I-91, (4As,8As)-3-[(phenylsulfonyl)oxy]hexahydroquinazoline-2,4(1H,3H)-dione]: the IC50 in experiment [1] (setting [10]) and in experiment [1] (setting [9]) was 231 µM throughout.
As to `NC(Cc1c[nH]c2cc(OCc3ccccc3)ccc12)C(=O)O` (centres unmarked) [Compound I-92, 2-amino-3-[6-(benzyloxy)-1H-indol-3-yl]propanoic acid], the IC50 in experiment [1] (setting [10]) and in experiment [1] (setting [9]) was 189 µM each time.
As for `Cc1c2ccccc2nc(C[S+]([O-])c2ccccc2)[n+]1[O-]` (centres unmarked) [Compound I-93, 4-methyl-2-[(phenylsulfinyl)methyl]quinazoline 3-oxide], the IC50 in experiment [1] (setting [10]) was 181 µM; in experiment [1] (setting [9]), 182 µM.
Consider `Oc1ccc(/C=N\c2ccccc2/N=C\c2ccc(O)c(O)c2)cc1O` [Compound I-103, 4,4`-{benzene-1,2-diylbis[nitrilo(Z)methylylidene]}dibenzene-1,2-diol], for which the IC50 in experiment [1] (setting [10]) and in experiment [1] (setting [9]) was 95.6 µM throughout.
Consider `O=C(NN1C(=O)C=C(O)C1=Cc1ccccc1)c1ccccc1` [Compound I-112, N-[2-benzylidene-3-hydroxy-5-oxo-2,5-dihydro-1H-pyrrol-1-yl]benzamide], for which the IC50 in experiment [1] (setting [10]) and in experiment [1] (setting [9]) was 170 µM in each case.
For the compound `Cc1ccccc1NC(=O)Nc1cccc(-c2nnc(Cc3ccc4c(c3)OCO4)o2)c1` [IA8, 3-[3-[5-(1,3-benzodioxol-5-ylmethyl)-1,3,4-oxadiazol-2-yl]phenyl]-1-(o-tolyl) urea], the IC50 in experiment [1] (setting [10]) was 143 µM.
For `O=S(=O)(O)c1ccc(O)c(/N=N/c2ccc(O)cc2O)c1` [IS-2, Benzensulfonic acid, 3-[(2,4-dihydroxyphenyl)azo]-4-hydroxy], the IC50 in experiment [1] (setting [10]) was 17.4 µM and 17.7 µM; in experiment [1] (setting [9]) it was 16.3 µM.
Turning to `COc1ccc(-c2nc3ccccc3s2)cc1S(=O)(=O)O` [IS-4, 5-(1,3-benzothiazol-2-yl)-2-methoxybenzenesulfonic acid], the “Inhibition in HEK (IC50 in µg/ml)” value in experiment [3] was “slight toxicity”. The IC50 in experiment [3] was 164.7 ± 1.24 µg/mL (≈ 512 µM); in experiment [4], 173 ± 2.3 µg/mL (≈ 538 µM); in experiment [1] (setting [10]) it was 45.1 µM; in experiment [1] (setting [9]) it was 42.1 µM; in experiment [6] it was 166 ± 3.72 µg/mL (≈ 516 µM); in experiment [7], 176.3 ± 1.6 µg/mL (≈ 549 µM). Further, the “Inhibition in MDCK (IC50 in µg/ml)” value in experiment [4] is “slight toxicity”. Also, in experiment [5], the MIC90 amounted to 100 µg/mL (≈ 311 µM). Besides, the “Inhibition in THP1 (IC50 in µg/ml)” value in experiment [6] is “slight toxicity”. Besides, the “Inhibition in HepG2 (IC50 in µg/ml)” value in experiment [7] was “slight toxicity”.
With `O=S(=O)(O)c1cccc2cccc(N=Nc3c(O)ccc4ccccc34)c12` [IS-6, 8-[-(2-hydroxynaphthalen-1-yl)diazenyl]naphthalene-1-sulfonic acid], the IC50 in experiment [1] (setting [10]) was 57.2 µM; in experiment [1] (setting [9]) it was 54 µM.
As for `Nc1ccc(N=Nc2ccc(N=Nc3ccc(N=Nc4cc(S(=O)(=O)O)c5ccccc5c4O)c4ccc(S(=O)(=O)O)cc34)c3ccc(S(=O)(=O)O)cc23)cc1` [IS-8, 1-Naphthalenesulfonic acid, 3-[[4-[[4-[(4-aminophenyl)azo]-6-sulfo-1-naphthalenyl]azo]-6-sulfo-1-naphthalenyl]azo]-4-hydroxy-,trisodium salt], the IC50 in experiment [1] (setting [10]) is 0.813 µM and 0.822 µM; in experiment [1] (setting [9]), 0.75 µM.
Consider `O=S(=O)([O-])c1cc(N=Nc2c(O)ccc3ccccc23)c2c(S(=O)(=O)[O-])cccc2c1.[Na+].[Na+]` [IS-9, 8-[-(2-hydroxynaphthalen-1-yl)diazenyl]naphthalene-1,6-disulfonic acid, disodium salt], for which the “IC50” value in experiment [1] (setting [8]) is 13.9 ± 7.37 µg/mL; in experiment [1] (setting [9]) it was 27.6 µM.
`O=S(=O)(O)c1ccc(O)c(/N=N/c2ccc(O)cc2O)c1` [IS-12, Benzene sulfonic acid, 3-[(2,4-dihydroxyphenyl)azo]-4-hydroxy]: the IC50 in experiment [1] (setting [10]) was 15.1 µM; in experiment [1] (setting [9]), 15.2 µM.
With `Nc1ccc(-c2nc3ccccc3s2)cc1S(=O)(=O)O` [IS-32, 2-Amino-5-(1,3-benzothiazol-2-yl) benzenesulfonic acid], the IC50 is 68.3 µM in experiment [1] (setting [10]) and 64.8 µM in experiment [1] (setting [9]).
For `Cc1cc(=O)oc2c(CNC(C(=O)O)C(C)O)c(O)ccc12` (centres unmarked) [IS-40, 3-hydroxy-2-{[(7-hydroxy-4-methyl-2-oxo-2H-chromen-8-yl)methyl]amino}butanoic acid], the IC50 was 269 µM in experiment [1] (setting [10]) and 275 µM in experiment [1] (setting [9]).
Consider `O=S(=O)(O)c1ccc2c(N=Nc3cccc4ccccc34)c(O)c(S(=O)(=O)O)cc2c1` [IS-45, 2,7-naphthalenedisulfonic acid, 3-hydroxy-4-(1-napthalenylazo)], for which the “IC50” value in experiment [1] (setting [8]) was determined as 20.19 ± 1.74 µg/mL; in experiment [1] (setting [9]), 40 µM.
`Oc1ccccc1C=Nc1ccccc1N=Cc1ccccc1O` [IS-47]: the entries for the “IC50” value in experiment [1] (setting [8]) and in experiment [1] (setting [9]) were 84 ± 1.2 µg/mL and 266 µM, respectively.
Regarding `Nc1ccc(-c2nc3ccccc3s2)cc1` [IS-54, 4-(1,3-benzothiazol-2-yl)aniline], the “Inhibition in HEK (IC50 in µg/ml)” value in experiment [3] was “slight toxicity”. For the same compound, the IC50 in experiment [3] was 161 ± 4.22 µg/mL (≈ 712 µM); in experiment [4], 174 ± 6.4 µg/mL (≈ 770 µM); in experiment [1] (setting [10]) it was 49.5 µM; in experiment [1] (setting [9]), 49.6 µM; in experiment [6], 182 ± 5.2 µg/mL (≈ 802 µM); in experiment [7] it was 167 ± 3.78 µg/mL (≈ 740 µM). In experiment [4], the “Inhibition in MDCK (IC50 in µg/ml)” value was “slight toxicity”. The “MIC90 of compounds against M. tuberculosis” value in experiment [5] stood at 84.8 ± 8 µg/mL. Besides, the MIC90 in experiment [5] is 84.8 µg/mL (≈ 375 µM). Besides, the “Inhibition in THP1 (IC50 in µg/ml)” value in experiment [6] was “slight toxicity”. Also, the “Inhibition in HepG2 (IC50 in µg/ml)” value in experiment [7] is “slight toxicity”.
As for `O=S(=O)(O)c1cccc2c(O)c(N=Nc3cccc4ccccc34)ccc12` [IS-55, 1-napthalenesulfonic acid,5-hydroxy-6-(1-naphthalenylazo)], the “IC50” value in experiment [1] (setting [8]) turned out to be 6.6 ± 1.95 µg/mL; in experiment [1] (setting [9]), 16.4 µM.
The corresponding values for `COc1ccccc1N=Nc1cc(S(=O)(=O)O)c2ccccc2c1O` [IS-59] are 18.64 ± 1.532 µg/mL and 48.9 µM.
On to `O=S(=O)(Nc1c(Cl)c(Cl)c(Cl)c(Cl)c1NS(=O)(=O)c1ccccc1)c1ccccc1` [IS-70, N,N-(3,4,5,6-tetrachlorobenzene-1,2-diyl) dibenzenesulfonamide], for which the entries for the “IC50” value in experiment [1] (setting [8]) and in experiment [1] (setting [9]) were 46.44 ± 1.486 µg/mL and 88.3 µM, respectively.
For the compound `CO[C@H]1/C=C/O[C@@]2(C)Oc3c(C)c(O)c4c(O)c(c(/C=N/N5CCN(C)CC5)c(O)c4c3C2=O)NC(=O)/C(C)=C\C=C\[C@H](C)[C@H](O)[C@@H](C)[C@@H](O)[C@@H](C)[C@H](OC(C)=O)[C@@H]1C` [Rifampicin, reference compound], the IC50 in experiment [3], in experiment [4], in experiment [6] and in experiment [7] was more than 100 µg/mL throughout. The MIC90 in experiment [5] fell in the range of 0.05 to 0.2 µg/mL (≈ 0.0608 to 0.243 µM).

For the origin of these results see article PMC5498548.
